Reference: patent publication US10092551B2, “Spiro-thiazolones” (Hoffmann-La Roche Inc., priority 2014, dated 2018)
Where a name gives a salt, the structure may show the parent alone.

Molecular target: human V1a receptor (Homo sapiens (Human), UniProt P37288)
Experiment: human V1a receptor binding studies (3H-Vasopressin, SPA beads)
Settings: membranes of HEK293 cells transiently transfected with human V1a receptor, Ki by Cheng-Prussoff
Description: The human V1a receptor was cloned by RT-PCR from total human liver RNA. The coding sequence was subcloned in an expression vector after sequencing to confirm the identity of the amplified sequence. […] Cell membranes were prepared from HEK293 cells transiently transfected with the expression vector and grown in 20 liter fermenters with the following protocol.
50 g of cells are re-suspended in 30 ml freshly prepared ice cold Lysis buffer (50 mM HEPES, 1 mM EDTA, 10 mM MgCl2 adjusted to pH=7.4+complete cocktail of protease inhibitor (Roche Diagnostics)). Homogenized with Polytron for 1 min and sonicated on ice for 2×2 minutes at 80% intensity (Vibracell sonicator). The preparation is centrifuged 20 min at 500 g at 4° C., the pellet is discarded and the supernatant centrifuged 1 hour at 43,000 g at 4° C. (19,000 rpm). The pellet is re-suspended in 12.5 ml Lysis buffer+12.5 ml Sucrose 20% and homogenized using a Polytron for 1-2 min. The protein concentration is determined by the Bradford method and aliquots are stored at −80° C. until use. For binding studies 60 mg Yttrium silicate SPA beads (Amersham) are mixed with an aliquot of membrane in binding buffer (50 mM Tris, 120 mM NaCl, 5 mM KCl, 2 mM CaCl2, 10 mM MgCl2) for 15 minutes with mixing. 50 μl of bead/membrane mixture is then added to each well of a 96 well plate, followed by 50 μl of 4 nM 3H-Vasopressin (American Radiolabeled Chemicals). For total binding measurement 100 μl of binding buffer are added to the respective wells, for non-specific binding 100 μl of 8.4 mM cold vasopressin and for compound testing 100 μl of a serial dilution of each compound in 2% DMSO. The plate is incubated 1 h at room temperature, centrifuged 1 min at 1000 g and counted on a Packard Top-Count. Non-specific binding counts are subtracted from each well and data is normalized to the maximum specific binding set at 100%. To calculate an IC 50 the curve is fitted using a non-linear regression model (XLfit) and the Ki is calculated using the Cheng-Prussoff equation.

Sequence of human V1a receptor (P37288 whole entry): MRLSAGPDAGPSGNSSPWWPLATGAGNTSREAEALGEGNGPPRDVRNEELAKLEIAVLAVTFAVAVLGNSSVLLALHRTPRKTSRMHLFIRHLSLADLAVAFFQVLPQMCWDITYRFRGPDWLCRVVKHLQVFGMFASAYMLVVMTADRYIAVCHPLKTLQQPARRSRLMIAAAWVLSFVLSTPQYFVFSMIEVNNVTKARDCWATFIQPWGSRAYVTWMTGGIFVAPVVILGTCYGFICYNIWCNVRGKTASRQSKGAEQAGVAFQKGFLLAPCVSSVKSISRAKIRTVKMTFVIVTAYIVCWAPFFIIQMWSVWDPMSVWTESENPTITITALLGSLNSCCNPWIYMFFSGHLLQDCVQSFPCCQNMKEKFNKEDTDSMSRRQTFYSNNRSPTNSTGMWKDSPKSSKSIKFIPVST

In order of rising “pKi hV1a” value:
1. O=C1N=C(N2CCC3(CC2)OCc2ccccc23)SC1=C(C1CCCCC1)C1CCCCC1 [Example 125, 5-(dicyclohexylmethylidene)-2-(1′H,3H-spiro[2-benzofuran-1,4′-piperidin]-1′-yl)-1,3-thiazol-4(5H)-one]  7.2
2. O=C1N=C(N2CCC3(CC2)OCc2ccccc23)S/C1=C1/C(=O)Nc2ccccc21 [Example 74, (3E/Z)-3-[4-oxo-2-(1′H,3H-spiro[2-benzofuran-1,4′-piperidin]-1′-yl)-1,3-thiazol-5(4H)-ylidene]-1,3-dihydro-2H-indol-2-one]  7.5
3. C/C(=C1\SC(N2CCC3(CC2)OCc2ccccc23)=NC1=O)c1ccncc1 [Example 36, (5E)-5-[1-(pyridin-4-yl)ethylidene]-2-(1′H,3H-spiro[2-benzofuran-1,4′-piperidin]-1′-yl)-1,3-thiazol-4(5H)-one]  7.5
4. CC/C(=C1\SC(N2CCC3(CC2)OCc2ccccc23)=NC1=O)c1ccncc1 [Example 32, (5E)-5-[1-(pyridin-4-yl)propylidene]-2-(1′H,3H-spiro[2-benzofuran-1,4′-piperidin]-1′-yl)-1,3-thiazol-4(5H)-one]  7.9
5. CC/C(=C1\SC(N2CCC3(CC2)OCc2ccccc23)=NC1=O)c1ccc(Cl)nc1 [Example 134, (5E)-5-[1-(6-chloropyridin-3-yl)propylidene]-2-(1′H,3H-spiro[2-benzofuran-1,4′-piperidin]-1′-yl)-1,3-thiazol-4(5H)-one]  8.0
6. C/C(=C1/SC(N2CCC3(CC2)OCc2ccccc23)=NC1=O)C(F)(F)F [Example 71, (5Z)-2-(1′H,3H-spiro[2-benzofuran-1,4′-piperidin]-1′-yl)-5-(1,1,1-trifluoropropan-2-ylidene)-1,3-thiazol-4(5H)-one]  8.3
7. C/C(=C1/SC(N2CCC3(CC2)OCc2ccccc23)=NC1=O)c1cnn(C)c1 [Example 62, (5Z)-5-[1-(1-methyl-1H-pyrazol-4-yl)ethylidene]-2-(1′H,3H-spiro[2-benzofuran-1,4′-piperidin]-1′-yl)-1,3-thiazol-4(5H)-one]  8.3
8. CC/C(=C1/SC(N2CCC3(CC2)OCc2ccccc23)=NC1=O)c1cc(C)on1 [Example 64, (5E/Z)-5-[1-(5-methyl-1,2-oxazol-3-yl)propylidene]-2-(1′H,3H-spiro[2-benzofuran-1,4′-piperidin]-1′-yl)-1,3-thiazol-4(5H)-one]  8.6
9. O=C1N=C(N2CCC3(CC2)OCc2ccccc23)S/C1=C1/CCCc2ccccc21 [Example 45, (5Z)-5-(3,4-dihydronaphthalen-1(2H)-ylidene)-2-(1′H,3H-spiro[2-benzofuran-1,4′-piperidin]-1′-yl)-1,3-thiazol-4(5H)-one]  8.7
10. C/C(=C1/SC(N2CCC3(CC2)OCc2ccccc23)=NC1=O)C1CCCCC1 [Example 29, (5Z)-5-(1-cyclohexylethylidene)-2-(1′H,3H-spiro[2-benzofuran-1,4′-piperidin]-1′-yl)-1,3-thiazol-4(5H)-one]  8.7
11. C/C(=C1/SC(N2CCC3(CC2)OCc2ccccc23)=NC1=O)c1ccccn1 [Example 38, (5Z)-5-[1-(pyridin-2-yl)ethylidene]-2-(1′H,3H-spiro[2-benzofuran-1,4′-piperidin]-1′-yl)-1,3-thiazol-4(5H)-one]  8.8
12. C/C(=C1/SC(N2CCC3(CC2)OCc2ccccc23)=NC1=O)c1ccco1 [Example 35, (5Z)-5-[1-(furan-2-yl)ethylidene]-2-(1′H,3H-spiro[2-benzofuran-1,4′-piperidin]-1′-yl)-1,3-thiazol-4(5H)-one]  8.9
13. C/C(=C1/SC(N2CCC3(CC2)OCc2ccccc23)=NC1=O)c1ccc(C)nc1 [Example 7, (5E/Z)-5-[1-(6-methylpyridin-3-yl)ethylidene]-2-(1′H,3H-spiro[2-benzofuran-1,4′-piperidin]-1′-yl)-1,3-thiazol-4(5H)-one]  8.9
14. O=C1N=C(N2CCC3(CC2)OCc2ccccc23)S/C1=C1/COCc2ccccc21 [Example 87, (5E/Z)-5-(1H-isochromen-4(3H)-ylidene)-2-(1′H,3H-spiro[2-benzofuran-1,4′-piperidin]-1′-yl)-1,3-thiazol-4(5H)-one]  8.9
15. C/C(=C1\SC(N2CCC3(CC2)OCc2ccccc23)=NC1=O)c1ccccc1 [Example 152, (5E)-5-(1-phenylethylidene)-2-(1′H,3H-spiro[2-benzofuran-1,4′-piperidin]-1′-yl)-1,3-thiazol-4(5H)-one]  9.0
16. O=C1N=C(N2CCC3(CC2)OCc2ccccc23)S/C1=C1/CCCc2ccc(Cl)cc21 [Example 20, (5E/Z)-5-(7-chloro-3,4-dihydronaphthalen-1 (2H)-ylidene)-2-(1′H,3H-spiro[2-benzofuran-1,4′-piperidin]-1′-yl)-1,3-thiazol-4(5H)-one]  9.0
17. C/C(=C1/SC(N2CCC3(CC2)OCc2ccccc23)=NC1=O)c1ccccc1F [Example 57, (5Z)-5-[1-(2-fluorophenyl)ethylidene]-2-(1′H,3H-spiro[2-benzofuran-1,4′-piperidin]-1′-yl)-1,3-thiazol-4(5H)-one]  9.0
18. C/C(=C1/SC(N2CCC3(CC2)OCc2cccnc23)=NC1=O)c1ccc(Cl)cc1 [Example 2, (5E/Z)-5-[1-(4-chlorophenyl)ethylidene]-2-(1′H,5H-spiro[furo[3,4-b]pyridine-7,4′-piperidin]-1′-yl)-1,3-thiazol-4(5H)-one]  9.0
19. O=C1N=C(N2CCC3(CC2)OCc2ccccc23)SC1=C(c1ccc[nH]1)c1ccc[nH]1 [Example 122, 5-(di-1H-pyrrol-2-ylmethylidene)-2-(1′H,3H-spiro[2-benzofuran-1,4′-piperidin]-1′-yl)-1,3-thiazol-4(5H)-one]  9.0
20. O=C1N=C(N2CCC3(CC2)OCc2ccccc23)S/C1=C1/CCCCc2ccc(Cl)cc21 [Example 89, (5E/Z)-5-(3-chloro-6,7,8,9-tetrahydro-5H-benzo[7]annulen-5-ylidene)-2-(1′H,3H-spiro[2-benzofuran-1,4′-piperidin]-1′-yl)-1,3-thiazol-4(5H)-one]  9.0
21. CC(C)(C)OC(=O)NC/C(=C1/SC(N2CCC3(CC2)OCc2ccccc23)=NC1=O)c1ccccc1 [Example 159, tert-butyl {(2E/Z)-2-[4-oxo-2-(1′H,3H-spiro[2-benzofuran-1,4′-piperidin]-1′-yl)-1,3-thiazol-5(4H)-ylidene]-2-phenylethyl}carbamate]  9.3
22. C/C(=C1/SC(N2CCC3(CC2)OC(=O)c2ccccc23)=NC1=O)c1ccccc1 [Example 156, 1′-[(5Z)-4-oxo-5-(1-phenylethylidene)-4,5-dihydro-1,3-thiazol-2-yl]-3H-spiro[2-benzofuran-1,4′-piperidin]-3-one]  9.3
23. O=C1N=C(N2CCC3(CC2)OCc2ccccc23)S/C1=C1/CCCCc2ccccc21 [Example 47, (5Z)-2-(1′H,3H-spiro[2-benzofuran-1,4′-piperidin]-1′-yl)-5-(6,7,8,9-tetrahydro-5H-benzo[7]annulen-5-ylidene)-1,3-thiazol-4(5H)-one]  9.3

Same assay, conditions: membranes of HEK293 cells transiently transfected with human V1a receptor, Ki by Cheng-Prussoff, read-out: pKi hV1a (converted)

Work on `O=C1N=C(N2CCC3(CC2)OCc2ccccc23)SC1=C1CCCNCC1` (racemic) [Example 81, (5E/Z)-5-(azepan-4-ylidene)-2-(1′H,3H-spiro[2-benzofuran-1,4′-piperidin]-1′-yl)-1,3-thiazol-4(5H)-one hydrochloride] yielded a Ki of 126 nM.
